# Where two headings read alike, the source gives them in different places.
# Tests used:
# HIV-1 strain LAI = assay: Cellular anti-HIV assay, MT4 cells, MTT readout, wild type HIV-1 strain LAI; format: cell-based
# Description: The compounds of the present invention were examined for anti-viral activity in a cellular assay. […] The cellular assay was performed according to the following procedure.
# mutant B = assay: Antiviral spectrum, fold resistance towards mutant B; format: cell-based; conditions: FR=IC50(mutant strain)/IC50(HIV-1 strain LAI)
# Description: (§1) Because of the increasing emergence of drug resistant HIV strains, the present compounds were tested for their potency against clinically isolated HIV strains harboring several mutations. These mutations are associated with resistance to protease inhibitors and result in viruses that show various degrees of phenotypic cross-resistance to the currently commercially available drugs such as for instance saquinavir, ritonavir, nelfinavir, indinavir and amprenavir. The viral strains R13025, R13027, R13028, R13029, R13034, R13080, T13127 and R13363 contained mutations as indicated below in Table 3.
# mutant C = assay: Antiviral spectrum, fold resistance towards mutant C; format: cell-based; conditions: FR=IC50(mutant strain)/IC50(HIV-1 strain LAI)
# Description: as §1
# mutant D = assay: Antiviral spectrum, fold resistance towards mutant D; format: cell-based; conditions: FR=IC50(mutant strain)/IC50(HIV-1 strain LAI)
# Description: as §1
# mutant A = format: cell-based; conditions: FR=IC50(mutant strain)/IC50(HIV-1 strain LAI)
# mutant E = format: cell-based; conditions: FR=IC50(mutant strain)/IC50(HIV-1 strain LAI)
# mutant F = assay: Antiviral spectrum, fold resistance towards mutant F; format: cell-based; conditions: FR=IC50(mutant strain)/IC50(HIV-1 strain LAI)
# Description: as §1
# mutant G = assay: Antiviral spectrum, fold resistance towards mutant G; format: cell-based; conditions: FR=IC50(mutant strain)/IC50(HIV-1 strain LAI)
# Description: as §1
# in vitro = conditions: human
# mock-infected MT4 cells = assay: Toxicity on mock-infected MT4 cells (CC50)
# mutant H = assay: Antiviral spectrum, fold resistance towards mutant H; format: cell-based; conditions: FR=IC50(mutant strain)/IC50(HIV-1 strain LAI)
# Description: as §1
# [1] = Oral availability in the rat, serum concentration; format: in vivo
# Description: The compounds are formulated as a 20 mg/ml solution or suspension in DMSO, PEG400 or cyclodextin 40% in water. For most experiments in the rat (male and female rats), three dosing groups are formed: 1/single intraperitoneal (IP) dose at 20 mg/kg using DMSO formulation; 2/single oral dose at 20 mg/kg using […] oral dose at 20 mg/kg using PEG400 formulation. Blood is sampled at regular time intervals after dosing and drug concentrations in the serum are determined using a LC-MS bioanalytical method. Serum concentrations are expressed in […]. Serum concentration at 30 minutes (30′) and at 3 hours (180′) can be determined as these values reflect the extent of absorption (30′) and the speed of elimination (180′). The rat serum concentration at 30 min and 180 min following IP administration of 20 mg/kg of compound 18 are 2012 ng/ml and 190 ng/ml respectively. The rat serum concentration at 30 min and 180 min following oral administration of 20 mg/kg as a DMSO formulation of compound 18 are 148 ng/ml and 44 ng/ml respectively; whereas in PEG400 said concentrations are respectively 475 ng/ml and 63 ng/ml.
# [2] = Human immunodeficiency virus 1, 120 h, Table 1, MT4 cells, five days, HIV-1 strain LAI, read-out: pIC50 (LAI) (converted)
# [3] = Human immunodeficiency virus 1, MT4, Table 4, wild type HIV-LAI strain, read-out: WT (pIC50 against wild type HIV-LAI strain) (converted)
# [4] = Table 1, MT4 cells, five days, HIV-1 strain LAI
# [5] = Table 4, wild type HIV-LAI strain
# [6] = pCC50 value as determined with mock transfected cells
Compound,IC50 (HIV-1 strain LAI; [2]) [nM],IC50 (HIV-1 strain LAI; [3]) [nM],FR towards mutant B (mutant B),FR towards mutant C (mutant C),FR towards mutant D (mutant D),FR value towards mutant A (mutant A),FR towards mutant E (mutant E),FR towards mutant F (mutant F),FR towards mutant G (mutant G),CC50 at 5 days (in vitro) [nM],pIC50 (LAI) (HIV-1 strain LAI; [4]),WT (pIC50 against wild type HIV-LAI strain) (HIV-1 strain LAI; [5]),Tox (pCC50) (mock-infected MT4 cells; [6]),other results
"CC(=O)Nc1nc2ccc(S(=O)(=O)N(CC(C)C)C[C@@H](O)[C@H](Cc3ccccc3)NC(=O)COc3c(C)cccc3C)cc2[nH]1 [Compound 9, [(1S,2R)-3-[[[2-(acetylamino)benzimidazol-5-yl]sulfonyl](2-methyl-propyl)amino]-2-hydroxy-1-(phenylmethyl)propyl]-(2,6-dimethylphenoxy)acetamide]",3.98,3.98,1.3,4.4,2.4,4.3,2.8,14,107,> 100000,,,,
"COC(=O)Nc1nc2ccc(S(=O)(=O)N(CC(C)C)C[C@@H](O)[C@H](Cc3ccccc3)NC(=O)COc3c(C)cccc3C)cc2[nH]1 [Compound 8, [(1S,2R)-2-hydroxy-3-[[[2-[(methoxycarbonyl)amino]-1H-benzimidazol-5-yl]sulfonyl](2-methylpropyl)amino]-1-(phenylmethyl)propyl]-(2,6-dimethylphenoxy)acetamide]",3.16,3.16,2.0,1.4,1.9,2.1,2.3,16.2,89,> 100000,,,,
COC(=O)Nc1nc2ccc(S(=O)(=O)N(CC(C)C)C[C@@H](O)[C@H](Cc3ccccc3)NC(=O)c3ccc(N)cc3C)cc2[nH]1 [Compound 22],,,0.78,1.1,0.71,0.74,0.72,0.69,4.3,,7.4,7.4,4.1,
CC(C)CN(C[C@@H](O)[C@H](Cc1ccccc1)NC(=O)OC1COC2OCCC12)S(=O)(=O)c1ccc2nc(NC(=O)NCCN(C)C)[nH]c2c1 (stereo partly drawn) [Compound 58],,,1.0,1.0,0.32,1.0,0.37,1.1,1.1,,5.6,5.6,,Tox (pCC50) (mock-infected MT4 cells): <4
COC(=O)Nc1nc2ccc(S(=O)(=O)N(CC(C)C)C[C@@H](O)[C@H](Cc3ccccc3)NC(=O)c3ccc([N+](=O)[O-])cc3C)cc2[nH]1 [Compound 11],,,1.0,1.5,3.5,5.4,1.6,7.1,245,,8.0,8.0,<4,
"Cc1nc2ccc(S(=O)(=O)N(CC(C)C)C[C@@H](O)[C@H](Cc3ccccc3)NC(=O)O[C@H]3CO[C@H]4OCC[C@H]43)cc2n1Cc1ccccc1 [Compound 2, [(1S,2R)-2-hydroxy-3-[[[[2-methyl-1-(phenylmethyl)]benzimidazol-6-yl]sulfonyl]-(2-methylpropyl)amino]-1-(phenylmethyl)propyl]carbamic acid, [(3R,3aS,6aR)-hexahydrofuro[2,3-b]furan-3-yl]ester]",1,1,6.3,1.9,6.3,32,2.9,162,,63100,,,,FR towards mutant H (mutant H): 89
COC(=O)Nc1nc2ccc(S(=O)(=O)N(CC(C)C)C[C@@H](O)[C@H](Cc3ccccc3)NC(=O)COc3c(C)cc(C#N)cc3C)cc2[nH]1 [Compound 12],,,2.1,9.5,7.9,5.5,9.5,49,89,,7.8,7.8,<4,
"[(1S,2R)-2-hydroxy-3-[[(2-methylbenzimidazol-5-yl)sulfonyl](2-methylpropyl)amino]-1-(phenylmethyl)propyl]-carbamic acid, [(3R,3aS,6aR)-hexahydrofuro[2,3-b]furan-3-yl]ester [Compound 24]",,,0.85,1.1,0.89,2.6,0.83,4.7,35,,7.3,7.3,<4,
CC(C)CN(CC(O)C(Cc1ccccc1)NC(=O)OC1COC2OCCC12)S(=O)(=O)c1ccc2ncn(C)c2c1 (stereo not drawn) [Compound 18],,,,,,,,,,,,,,"rat serum concentration at 30 min ([1]; IP administration of 20 mg/kg, 30 min): 2012 ng/mL; rat serum concentration at 180 min ([1]; IP administration of 20 mg/kg, 180 min): 190 ng/mL; rat serum concentration at 30 min ([1]; oral administration of 20 mg/kg as a DMSO formulation, 30 min): 148 ng/mL; rat serum concentration at 180 min ([1]; oral administration of 20 mg/kg as a DMSO formulation, 180 min): 44 ng/mL; rat serum concentration at 30 min ([1]; oral administration of 20 mg/kg in PEG400, 30 min): 475 ng/mL; rat serum concentration at 180 min ([1]; oral administration of 20 mg/kg in PEG400, 180 min): 63 ng/mL"
CC(C)CN(CC(O)C(Cc1ccccc1)NC(=O)OC1COC2OCCC12)S(=O)(=O)c1ccc2ncn(CCc3ccccc3)c2c1 (stereo not drawn) [Compound 5],,,1.9,0.9,1.9,,3.2,78,110,,8.7,8.7,4.1,FR towards mutant H (mutant H): 49

# — US8143421B2, “Broadspectrum substituted benzimidazole sulfonamide HIV protease inhibitors” (priority 2002, dated 2012)
